Test results taken from PubChem BioAssay AID1845206 (Molecular Pharmacology Branch, DTP, NCI, 2023).
pIC50: −log10 of the molar value.

System: NCI-H1618 multicellular tumor spheroid viability
Test: Anticancer human tumor NCI-H1618 cell line growth inhibition;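 further: spheroids exposed to agents for 7 days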
Conditions: for pIC50: curve of first compound; for viability, T/C: stronger effect = lower value
How it was run: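 Complex spheroids of malignant cells with endothelial cells and mesenchymal stem cells; agents alone or combined, from near clinical Cmax (or 10 microM if unknown) down in half-log steps, 0.25% DMSO final.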

[1] = second compound 30 pM, first compound 0.0316 µM
[2] = second compound 30 pM, first compound 0.1 µM
[3] = second compound 30 pM, first compound 0.316 µM
[4] = second compound 30 pM, first compound 1 µM
[5] = second compound 30 pM, first compound 3.16 µM
[6] = second compound 30 pM, first compound 10 µM
[7] = second compound 94.9 pM, first compound 0.0316 µM
[8] = second compound 94.9 pM, first compound 0.1 µM
[9] = second compound 94.9 pM, first compound 0.316 µM
[10] = second compound 94.9 pM, first compound 1 µM
[11] = second compound 94.9 pM, first compound 3.16 µM
[12] = second compound 94.9 pM, first compound 10 µM
[13] = second compound 0.0003 µM, first compound 0.0316 µM
[14] = second compound 0.0003 µM, first compound 0.1 µM
[15] = second compound 0.0003 µM, first compound 0.316 µM
[16] = second compound 0.0003 µM, first compound 1 µM
[17] = second compound 0.0003 µM, first compound 3.16 µM
[18] = second compound 0.0003 µM, first compound 10 µM
[19] = second compound 0.000949 µM, first compound 0.0316 µM
[20] = second compound 0.000949 µM, first compound 0.1 µM
[21] = second compound 0.000949 µM, first compound 0.316 µM
[22] = second compound 0.000949 µM, first compound 1 µM
[23] = second compound 0.000949 µM, first compound 3.16 µM
[24] = second compound 0.000949 µM, first compound 10 µM
[25] = second compound 0.003 µM, first compound 0.0316 µM
[26] = second compound 0.003 µM, first compound 0.1 µM
[27] = second compound 0.003 µM, first compound 0.316 µM
[28] = second compound 0.003 µM, first compound 1 µM
[29] = second compound 0.003 µM, first compound 3.16 µM
[30] = second compound 0.003 µM, first compound 10 µM

CC1COCCN1c1cc(-c2ccnn2C)c2ccnc(-c3ccn[nH]3)c2n1 (stereo not given) + COc1cc2c(cc1O)CCNC21CSC2c3c(OC(C)=O)c(C)c4c(c3C(COC1=O)N1C(O)C3Cc5cc(C)c(OC)c(O)c5C(C21)N3C)OCO4
pIC50 (second compound 30 pM): > 7.50
pIC50 (second compound 94.9 pM): > 7.50
pIC50 (second compound 0.0003 µM): > 7.50
pIC50 (second compound 0.000949 µM): > 7.50
pIC50 (second compound 0.003 µM): > 7.50
viability, T/C [1]: 41%
viability, T/C [2]: 8.59%
viability, T/C [3]: 2.6%
viability, T/C [4]: 1.69%
viability, T/C [5]: 1.44%
viability, T/C [6]: 1.07%
viability, T/C [7]: 4.76%
viability, T/C [8]: 7.64%
viability, T/C [9]: 1.66%
viability, T/C [10]: 2.1%
viability, T/C [11]: 0.97%
viability, T/C [12]: 1.13%
viability, T/C [13]: 7.32%
viability, T/C [14]: 1.52%
viability, T/C [15]: 2.44%
viability, T/C [16]: 1.22%
viability, T/C [17]: 1.2%
viability, T/C [18]: 1.07%
viability, T/C [19]: 1.86%
viability, T/C [20]: 2.16%
viability, T/C [21]: 1.58%
viability, T/C [22]: 1.26%
viability, T/C [23]: 1.11%
viability, T/C [24]: 1.22%
viability, T/C [25]: 1.5%
viability, T/C [26]: 1.77%
viability, T/C [27]: 2.41%
viability, T/C [28]: 2.07%
viability, T/C [29]: 1.2%
viability, T/C [30]: 1.35%

COc1cc(C)[nH]c(=O)c1CN1CCc2c(Cl)cc(C(OC)C3COC3)c(Cl)c2C1=O (stereo not given) + COc1cc2c(cc1O)CCNC21CSC2c3c(OC(C)=O)c(C)c4c(c3C(COC1=O)N1C(O)C3Cc5cc(C)c(OC)c(O)c5C(C21)N3C)OCO4
pIC50 (second compound 30 pM): < 5.00
pIC50 (second compound 94.9 pM): 6.28
pIC50 (second compound 0.0003 µM): > 7.50
pIC50 (second compound 0.000949 µM): > 7.50
pIC50 (second compound 0.003 µM): > 7.50
viability, T/C [1]: 73.8%
viability, T/C [2]: 74.9%
viability, T/C [3]: 61.7%
viability, T/C [4]: 73.8%
viability, T/C [5]: 74.4%
viability, T/C [6]: 67.9%
viability, T/C [7]: 86.8%
viability, T/C [8]: 65.9%
viability, T/C [9]: 48.3%
viability, T/C [10]: 57.5%
viability, T/C [11]: 31.9%
viability, T/C [12]: 38.4%
viability, T/C [13]: 14.9%
viability, T/C [14]: 19.3%
viability, T/C [15]: 5.64%
viability, T/C [16]: 2.68%
viability, T/C [17]: 1.81%
viability, T/C [18]: 3.33%
viability, T/C [19]: 5.55%
viability, T/C [20]: 2.33%
viability, T/C [21]: 3.62%
viability, T/C [22]: 3.05%
viability, T/C [23]: 3.08%
viability, T/C [24]: 3.38%
viability, T/C [25]: 3.07%
viability, T/C [26]: 2.73%
viability, T/C [27]: 3.33%
viability, T/C [28]: 2.29%
viability, T/C [29]: 1.94%
viability, T/C [30]: 2.51%

Cc1cc(C)c(CNC(=O)c2cc(-c3ccc(CN4CCOCC4)cc3)cc3c2cnn3C2CCCC2)c(=O)[nH]1 + COc1cc2c(cc1O)CCNC21CSC2c3c(OC(C)=O)c(C)c4c(c3C(COC1=O)N1C(O)C3Cc5cc(C)c(OC)c(O)c5C(C21)N3C)OCO4
pIC50 (second compound 30 pM): < 5.00
pIC50 (second compound 94.9 pM): 5.75
pIC50 (second compound 0.0003 µM): > 7.50
pIC50 (second compound 0.000949 µM): > 7.50
pIC50 (second compound 0.003 µM): > 7.50
viability, T/C [1]: 92.5%
viability, T/C [2]: 86.8%
viability, T/C [3]: 89.7%
viability, T/C [4]: 72.7%
viability, T/C [5]: 88%
viability, T/C [6]: 58.6%
viability, T/C [7]: 46.9%
viability, T/C [8]: 66.5%
viability, T/C [9]: 66.9%
viability, T/C [10]: 55%
viability, T/C [11]: 45.7%
viability, T/C [12]: 44.2%
viability, T/C [13]: 2.47%
viability, T/C [14]: 10.3%
viability, T/C [15]: 4.67%
viability, T/C [16]: 5.71%
viability, T/C [17]: 2.43%
viability, T/C [18]: 2.6%
viability, T/C [19]: 4.74%
viability, T/C [20]: 7.05%
viability, T/C [21]: 2.83%
viability, T/C [22]: 3.43%
viability, T/C [23]: 3.12%
viability, T/C [24]: 2.59%
viability, T/C [25]: 2.14%
viability, T/C [26]: 3%
viability, T/C [27]: 3.25%
viability, T/C [28]: 4.16%
viability, T/C [29]: 3.95%
viability, T/C [30]: 1.24%

Cc1sc2c(c1C)C(c1ccc(Cl)cc1)=NC(CC(=O)Nc1ccc(O)cc1)c1nnc(C)n1-2 (stereo not given) + COc1cc2c(cc1O)CCNC21CSC2c3c(OC(C)=O)c(C)c4c(c3C(COC1=O)N1C(O)C3Cc5cc(C)c(OC)c(O)c5C(C21)N3C)OCO4
pIC50 (second compound 30 pM): 6.56
pIC50 (second compound 94.9 pM): 6.80
pIC50 (second compound 0.0003 µM): > 8.02
pIC50 (second compound 0.000949 µM): > 8.02
pIC50 (second compound 0.003 µM): > 8.02
viability, T/C (second compound 30 pM, first compound 0.00949 µM): 86.2%
viability, T/C (second compound 30 pM, first compound 0.03 µM): 116%
viability, T/C (second compound 30 pM, first compound 0.0949 µM): 93.5%
viability, T/C (second compound 30 pM, first compound 0.3 µM): 45.9%
viability, T/C (second compound 30 pM, first compound 0.949 µM): 11.1%
viability, T/C (second compound 30 pM, first compound 3 µM): 2.15%
viability, T/C (second compound 94.9 pM, first compound 0.00949 µM): 72.2%
viability, T/C (second compound 94.9 pM, first compound 0.03 µM): 84.4%
viability, T/C (second compound 94.9 pM, first compound 0.0949 µM): 63.9%
viability, T/C (second compound 94.9 pM, first compound 0.3 µM): 29.9%
viability, T/C (second compound 94.9 pM, first compound 0.949 µM): 3.78%
viability, T/C (second compound 94.9 pM, first compound 3 µM): 1.08%
viability, T/C (second compound 0.0003 µM, first compound 0.00949 µM): 22.7%
viability, T/C (second compound 0.0003 µM, first compound 0.03 µM): 2.53%
viability, T/C (second compound 0.0003 µM, first compound 0.0949 µM): 10.2%
viability, T/C (second compound 0.0003 µM, first compound 0.3 µM): 11.7%
viability, T/C (second compound 0.0003 µM, first compound 0.949 µM): 0.74%
viability, T/C (second compound 0.0003 µM, first compound 3 µM): 0.78%
viability, T/C (second compound 0.000949 µM, first compound 0.00949 µM): 4.7%
viability, T/C (second compound 0.000949 µM, first compound 0.03 µM): 2.6%
viability, T/C (second compound 0.000949 µM, first compound 0.0949 µM): 1.78%
viability, T/C (second compound 0.000949 µM, first compound 0.3 µM): 0.74%
viability, T/C (second compound 0.000949 µM, first compound 0.949 µM): 0.65%
viability, T/C (second compound 0.000949 µM, first compound 3 µM): 0.37%
viability, T/C (second compound 0.003 µM, first compound 0.00949 µM): 2.16%
viability, T/C (second compound 0.003 µM, first compound 0.03 µM): 2.42%
viability, T/C (second compound 0.003 µM, first compound 0.0949 µM): 0.82%
viability, T/C (second compound 0.003 µM, first compound 0.3 µM): 0.41%
viability, T/C (second compound 0.003 µM, first compound 0.949 µM): 0.26%
viability, T/C (second compound 0.003 µM, first compound 3 µM): 0.46%

[2H]c1nc(C)nc([2H])c1-c1cc(NC[C@@H](C)c2cccc3c(C(=O)NC)ccnc23)ncn1 + COc1cc2c(cc1O)CCNC21CSC2c3c(OC(C)=O)c(C)c4c(c3C(COC1=O)N1C(O)C3Cc5cc(C)c(OC)c(O)c5C(C21)N3C)OCO4
pIC50 (second compound 30 pM): < 5.00
pIC50 (second compound 94.9 pM): 6.60
pIC50 (second compound 0.0003 µM): > 7.50
pIC50 (second compound 0.000949 µM): > 7.50
pIC50 (second compound 0.003 µM): > 7.50
viability, T/C [1]: 101%
viability, T/C [2]: 93.8%
viability, T/C [3]: 87.8%
viability, T/C [4]: 103%
viability, T/C [5]: 93.9%
viability, T/C [6]: 83.3%
viability, T/C [7]: 90.6%
viability, T/C [8]: 61.4%
viability, T/C [9]: 24.4%
viability, T/C [10]: 55.4%
viability, T/C [11]: 52.7%
viability, T/C [12]: 55.7%
viability, T/C [13]: 5.13%
viability, T/C [14]: 2.89%
viability, T/C [15]: 3.41%
viability, T/C [16]: 5.38%
viability, T/C [17]: 18.8%
viability, T/C [18]: 3.93%
viability, T/C [19]: 3.46%
viability, T/C [20]: 3.49%
viability, T/C [21]: 3.75%
viability, T/C [22]: 4.59%
viability, T/C [23]: 4.63%
viability, T/C [24]: 4.69%
viability, T/C [25]: 2.53%
viability, T/C [26]: 3.55%
viability, T/C [27]: 4.4%
viability, T/C [28]: 3.2%
viability, T/C [29]: 1.87%
viability, T/C [30]: 5.37%
